Assays:
[1] = target: Adenosine deaminase (Bos taurus) (UniProt P56658); experiment: Binding affinity towards adenosine deaminase
[2] = test system: Human immunodeficiency virus; experiment: The compound was tested for anti-HIV activity; Range = 5.0-15.0 uM; assay type: functional; details: Human immunodeficiency virus 1; read-out: ED50 (the source's name)
Tumor Cell line = experiment: The compound was tested for inhibitory activity against panel of human tumor cell lines; Range = 0.08-14.02 uM; assay type: functional, cell-based

Adenosine deaminase (Bos taurus), sequence (P56658 whole entry, looked up): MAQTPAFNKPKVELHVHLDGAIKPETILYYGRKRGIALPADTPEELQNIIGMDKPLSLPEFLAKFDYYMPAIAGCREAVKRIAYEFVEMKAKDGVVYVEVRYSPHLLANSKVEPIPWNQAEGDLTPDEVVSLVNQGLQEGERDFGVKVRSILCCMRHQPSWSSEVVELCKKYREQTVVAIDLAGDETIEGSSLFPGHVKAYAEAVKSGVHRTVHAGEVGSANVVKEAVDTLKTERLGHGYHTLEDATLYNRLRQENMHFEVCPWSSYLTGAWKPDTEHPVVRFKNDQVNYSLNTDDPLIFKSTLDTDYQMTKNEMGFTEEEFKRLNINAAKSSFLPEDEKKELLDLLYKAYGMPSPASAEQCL

For Nc1ncnc2c1ncn2[C@H]1CN[C@@H](CO)C1, which Ki [1] is on record?
Its Ki is 85 µM.

Which EC50 [2] does the source give for Nc1ncnc2c1ncn2[C@H]1CO[C@@H](CO)C1 here?
Its EC50 is 5 µM.

Which IC50 (Tumor Cell line) does the source give for Cc1cn([C@@H]2C[C@H](CO)N(O)C2)c(=O)[nH]c1=O here?
The IC50 was 0.08 µM.
